{
  "source": "paper PMC11681159",
  "about": "“Bee pollen peptides as potent tyrosinase inhibitors with anti-melanogenesis effects in murine b16f10 melanoma cells and zebrafish embryos” (Scientific Reports, 2024)",
  "key": {"mushroom TYR": {"target": "T1, mushroom TYR (Agaricus bisporus, UniProt C7FF04)", "T1 construct": "purchased Sigma-Aldrich, Merck T3824", "T1 sequence (C7FF04 2-392)": "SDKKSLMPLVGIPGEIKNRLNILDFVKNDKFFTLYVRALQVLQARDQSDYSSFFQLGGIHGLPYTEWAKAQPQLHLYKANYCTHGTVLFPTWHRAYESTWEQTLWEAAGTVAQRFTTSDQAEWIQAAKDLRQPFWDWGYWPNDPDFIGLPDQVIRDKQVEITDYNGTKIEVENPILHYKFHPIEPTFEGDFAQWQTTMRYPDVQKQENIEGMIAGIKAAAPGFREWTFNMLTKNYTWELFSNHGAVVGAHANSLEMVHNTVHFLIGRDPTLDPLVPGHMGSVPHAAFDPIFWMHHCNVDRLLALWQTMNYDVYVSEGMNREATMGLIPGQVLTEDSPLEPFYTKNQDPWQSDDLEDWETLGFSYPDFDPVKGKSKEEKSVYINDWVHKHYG", "assay": "Kinetic study, Lineweaver-Burk, di-phenolase", "assay_type": "biochemical", "conditions": "Km rose, Vmax unchanged", "procedure": "It is necessary to determine the type of TYR inhibitory activity which takes place. This can be achieved through a modified version of an assay described by Feng et al.[39]. The process starts by dissolving the peptide VY-9 in deionized water at various concentrations (0, 0.25, 0.5, and 1 mM). Each VY-9 peptide sample at each concentration (35 µL) was combined 15 µL of mushroom TYR (333 U/mL in 50 mM PBS pH 6.8) prior to 5 min of incubation at 25 °C. Subsequently, various concentrations of substrate were introduced, namely 0–2 mM L-tyrosine in the case of mono-phenolase, and 0–12 mM L-DOPA for di-phenolase. These new mixtures underwent further incubation for 30 min at the same temperature of 25 °C. Upon completion, a spectrophotometer was used to measure the absorbance and determine the inhibitory activity at 490 nm. Lineweaver-Burk plots were then used in calculating Km and Vmax, the kinetic parameters. Km is indicated by the intersection point on the X-axis while Vmax is indicated by the intersection point on the Y-axis in the mode of TYR inhibition under examination. Construction of the plots linked the substrate concentration reciprocal on the X-axis and the absorbance reciprocal (at 490 nm) on the Y-axis, to represent the starting rate for the enzymatic reaction. […]"}, "Trp-2": {"test_system": "Trp-2", "assay": "qRT-PCR, Trp-2 mRNA", "assay_type": "cell-based, mouse", "conditions": "B16F10, 48 h", "procedure": "A 6-well plate was used to seed B16F10 cells at 1 × 10^5 cells per well prior to overnight incubation in a 5% CO2 humid atmosphere at 37°C. […] Harvesting was conducted via removal of the supernatant, and the cells were rinsed twice in PBS (phosphate-buffered saline). The PureLink™RNA Mini Kit (Invitrogen™, USA) was then used to extract total RNA in line with the guidance of the manufacturer. RNA concentration was assessed at 260 nm with a NanoDrop 2000 UV-Vis spectrophotometer (Thermo Fisher Scientific, Inc.). Oligo-dT primers and a Precision nanoScript II Reverse Transcription Kit (PrimerDesign, Camberley, UK) were used to perform the reverse transcription of 1 µg of total RNA to cDNA in line with the guidance of the manufacturer. MyGo Pro®Real time PCR apparatus (IT-IS International Ltd., Stokesley, UK) was then used to perform the qRT-PCR assays in which 20 µL of PCR reaction contained 1 µL of cDNA, 7 µL of ultrapure water, 1 µL of each primer […], and 10 µL of 2×qPCRBIO SyGreen Mix (PCR Biosystems Ltd, London, UK). This research made use of the following PCR primers: Gapdh forward 5’-[…]-3’, Gapdh reverse 5’-[…]-3’, Tyr forward 5’-[…]-3’, Tyr reverse 5’-[…]-3’, Trp-1 forward 5’-[…]-3’, Trp-1 reverse 5’-[…]-3’, Trp-2 forward 5’-[…]-3’, Trp-2 reverse 5’-[…]-3’, Mitf forward 5’-[…] − 3’, Mitf reverse 5’-[…]-3’. The initial stage of the process of qRT-PCR amplification was the activation step of thermal treatment where a temperature of 95 °C was used for 2 min, with 45 subsequent cycles comprising 10 s at 95 °C, 20 s at 60 °C, and 30 s at 72 °C, before embarking upon the final melting curve from 60 to 97 °C with 1 min for each step. The relative gene expression level could then be calculated via the cycle threshold (Ct) value, while the role of endogenous control for data normalization was occupied by Gapdh (the housekeeping gene). To calculate relative gene expression, the formula given below can be employed:2 [drawing 2]\nwhere the heightened threshold cycle for the target gene is given as ΔΔCt."}, "zebrafish embryos": {"test_system": "zebrafish embryos", "assay": "Acute toxicity in zebrafish embryos", "assay_type": "in vivo", "procedure": "To perform the test of acute toxicity, a total of 20 fertilized zebrafish embryos were collected at around 4 h after fertilization and added to each well in a 12-well plate. […] Incubation of the plate then took place until 48 h after fertilization at a temperature of 28.5 ± 1 °C. The test solutions were refreshed at 24 h after fertilization to allow the counting and removal of any dead embryos. Following exposure, a stereomicroscope (SZX16, Olympus, Japan) was used to record the embryo morphological effects. Meanwhile, a slightly modified version of a previously described melanin inhibitory assay was carried out[30]. The embryos were then homogenized using a cold lysis buffer (PBS pH 7.4, 1% Triton-X and 1% DMSF). The lysate then underwent 10 min of sonication before being placed in a centrifuge for 5 min at 10,000×g. The pellet was then removed from the centrifuge and dissolved in 200 µL of 1 N NaOH for 1 h at a temperature of 85 °C. This sample was subsequently vortexed and placed in the centrifuge for a further 5 min at 10,000×g. A microplate reader (Spectramax M5, Molecular Devices, USA) was then employed to determine the supernatant absorbance at 490 nm. Melanin content levels could then by calibrated by using the protein amount, and were reported in the form of a percentage compared to the untreated control. In the melanin inhibitory assay, the positive control used was phenylthiourea (PTU) solution (0.0015%)."}, "B16F10 melanoma cells": {"test_system": "B16F10 melanoma cells", "assay": "Cell viability assay (MTT)", "assay_type": "cell-based, mouse", "conditions": "72 h", "procedure": "To perform the assay to establish cell viability, a 96-well plate was used for the seeding of the B16F10 cells at 5 × 10^3 cells/well. The cells were then left overnight to allow adherence. The VY-9 peptide at varying concentrations was then used to treat the cells for 72 h. MTT was produced as a 2.5 mg/mL solution in PBS whereupon 10 µL of this MTT solution was introduced to each well before incubating the plate for 4 h at 37 °C inside a humid 5% CO2 incubator. Following this step, the medium was removed the wells, and 200 µL of DMSO was added in its place. Finally, a microplate reader was employed to measure the absorbance for each of the wells at 540 nm, while arbutin (0.2 mM) served as the positive control. Each test was carried out in triplicate, with the findings presented in the form of mean ± standard deviation."}},
  "note": "Entries after “also recorded” stand apart in the source; their conditions may differ. Ends that are not written are not given here.",
  "data": [
    {"sequence": "VDGYPAAGY [VY-9, Val-Asp-Gly-Tyr-Pro-Ala- Ala-Gly-Tyr]", "values": [
      {"measurement": "inhibition type, di-phenolase", "setting": "mushroom TYR", "value": "competitive inhibitor"},
      {"measurement": "TRP-2 mRNA level vs control", "setting": "Trp-2; 0.2 µM", "value": "decreased slightly compared to the control"},
      {"measurement": "Trp-2 mRNA expression vs control", "setting": "Trp-2; 1.6 µM", "value": "significantly reduced the expression levels of all measured genes"},
      {"measurement": "concentration from which Trp-2 mRNA expression decreased", "setting": "Trp-2; vs control", "value": 0.2, "unit": "µM"},
      {"measurement": "Trp-2 mRNA expression vs arbutin", "setting": "Trp-2; VY-9 1.6 µM vs arbutin 0.2 mM", "value": "significantly decreased compared to arbutin"},
      {"measurement": "embryo development", "setting": "zebrafish embryos; 20 µM", "value": "the development of the embryo was significantly retarded"},
      {"measurement": "embryo survival / malformation", "setting": "zebrafish embryos; 2–10 µM, vs control", "value": "no significant influence; also recorded: no significant difference in the rates for survival or malformation"},
      {"measurement": "no observed effect concentration (NOEC)", "setting": "zebrafish embryos; zebrafish embryos, to 48 h after fertilization, 28.5 °C", "value": 10, "unit": "µM"},
      {"measurement": "cytotoxicity in B16F10 cells", "setting": "B16F10 melanoma cells; 0 to 1.6 µM (abstract: 0.2–1.6 µM)", "value": "negligible cytotoxicity; also recorded: no clear signs of cytotoxicity"},
      {"measurement": "B16F10 cell viability", "setting": "B16F10 melanoma cells; 0 to 1.6 µM, triplicate", "value": "> 50", "unit": "%"}
    ]}
  ]
}
